Results reported in patent US9315458B2, “Nitrogen-containing heterocyclic compound” (Takeda Pharmaceutical Company Limited, priority 2014, dated 2016).

Target: T1, human M1 receptor (hCHRM1) (Homo sapiens, UniProt P11229)
T1 construct: expressed in transfected cells
T1 sequence (P11229 1-460): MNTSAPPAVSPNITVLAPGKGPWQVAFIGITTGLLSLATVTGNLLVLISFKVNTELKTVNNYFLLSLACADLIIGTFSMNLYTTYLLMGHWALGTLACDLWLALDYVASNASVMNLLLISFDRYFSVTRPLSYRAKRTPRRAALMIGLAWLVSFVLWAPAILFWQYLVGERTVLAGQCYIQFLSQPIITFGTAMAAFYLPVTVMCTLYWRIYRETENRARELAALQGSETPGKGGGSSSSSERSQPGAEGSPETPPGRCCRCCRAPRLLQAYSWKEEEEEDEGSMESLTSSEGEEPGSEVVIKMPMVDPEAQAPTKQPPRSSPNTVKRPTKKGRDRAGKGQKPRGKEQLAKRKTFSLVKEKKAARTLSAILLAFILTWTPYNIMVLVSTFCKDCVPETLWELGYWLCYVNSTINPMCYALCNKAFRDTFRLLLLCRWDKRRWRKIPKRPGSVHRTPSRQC
Assay: Measurement of M1 receptor positive allosteric modulator (M1PAM) activity, calcium fluorescence (FLIPRtetra) with acetylcholine at EC20
Assay type: cell-based
Conditions: for activity (%) at 10 μM: 10 μM test compound, 100% = acetylcholine 1 μM, 0% = DMSO, acetylcholine at EC20; for EC50: inflection point of concentration-dependent curve, CHO-K1 cells expressing hCHRM1, acetylcholine at EC20 (final 0.6-0.8 nM), read-out: IP value
Method: The activity of a test compound in the presence of acetylcholine at EC20 concentration (final concentration 0.6-0.8 nM), which affords an action corresponding to about 20% of the maximum activity, was measured as PAM activity. The method is as follows. CHO-K1 cells stably expressing a human M1 receptor (hCHRM1) were plated on a 384-well black clear bottom plate (BD Falcon) at 5,000 cells/well, and cultured in an incubator at 37° C., 5% CO2 for 1 day. The medium in the cell plate was removed, and assay buffer A (Recording medium (DOJINDO LABORATORIES), 0.1% BSA (Wako Pure Chemical Industries, Ltd.), 2.5 μg/mL Fluo-4 AM (DOJINDO LABORATORIES), 0.08% Pluronic F127 (DOJINDO LABORATORIES), 1.25 mM probenecid (DOJINDO LABORATORIES)) containing a calcium indicator was added at 30 μL/well. The cells were left standing in the incubator at 37° C., 5% CO2 for 30 min, and further left standing at room temperature for 30 min. A test compound prepared by diluting with assay buffer B (HBSS (Invitrogen), 20 mM HEPES (Invitrogen), 0.1% BSA) containing 2.4-3.2 nM acetylcholine was added at 10 μL/well, and the fluorescence was measured by FLIPRtetra (Molecular Devices) for 1 min every 1 second. With the definition that the amount of change in the fluorescence on addition of acetylcholine (final concentration 1 μM) is 100% and that on addition of DMSO instead of a test compound is 0%, the activity (%) of the test compound was calculated, and the inflection point in the concentration-dependent curve of the test compound was calculated as IP values.

| activity (%) at 10 μM [%] | EC50 [nM] | Structure (SMILES) |
| --- | --- | --- |
| 90 | 14 | Cc1c(Cc2ccc(-n3cccn3)cc2)cc2c(c1C)CN(CC1CCCO1)C2=O (stereo not shown) [Example 80, 4,5-dimethyl-6-(4-(1H-pyrazol-1-yl)benzyl)-2-(tetrahydrofuran-2-ylmethyl)isoindolin-1-one] |
| 93 | 72 | Cc1c(Cc2ccc(-n3cccn3)cc2)cc2c(c1F)CN([C@H]1CCC[C@@H]1O)C2=O (racemic) [Example 79, rac-4-fluoro-2-(trans-2-hydroxycyclopentyl)-5-methyl-6-(4-(1H-pyrazol-1-yl)benzyl)isoindolin-1-one] |
| 99 | 16 | CCc1ccc(Cc2cc3c(c(C)c2C)CN([C@H]2CCCC[C@@H]2O)C3=O)cn1 [Example 149, 6-((6-ethylpyridin-3-yl)methyl)-2-((1S,2S)-2-hydroxycyclohexyl)-4,5-dimethylisoindolin-1-one] |
| 100 | 12 | Cc1c(Cc2ccc(-n3cccn3)cc2)cc2c(c1Cl)CN([C@H]1CCC[C@@H]1O)C2=O [Example 131, 4-chloro-2-((1S,2S)-2-hydroxycyclopentyl)-5-methyl-6-(4-(1H-pyrazol-1-yl)benzyl)isoindolin-1-one] |
| 104 | 59 | Cc1c(Cc2ccc(-n3cccn3)cc2)cc2c(c1F)CN(CC(C)(C)O)C2=O [Example 127, 4-fluoro-2-(2-hydroxy-2-methylpropyl)-5-methyl-6-(4-(1H-pyrazol-1-yl)benzyl)isoindolin-1-one] |
| 98 | 19 | Cc1cc2c(cc1Cc1ccc(-n3cccn3)cc1)C(=O)N([C@H]1CCC[C@@H]1O)C2 [Example 4, 2-((1S,2S)-2-hydroxycyclopentyl)-5-methyl-6-(4-(1H-pyrazol-1-yl)benzyl)isoindolin-1-one] |
| 87 | 7.3 | Cc1c(Cc2ccc(-n3cccn3)cc2)cc2c(c1Cl)CN(CC(C)(C)O)C2=O [Example 132, 4-chloro-2-(2-hydroxy-2-methylpropyl)-5-methyl-6-(4-(1H-pyrazol-1-yl)benzyl)isoindolin-1-one] |
| 106 | 31 | CCOc1ccc(Cc2cc3c(c(C)c2C)CN([C@H]2COCC[C@@H]2O)C3=O)cc1 [Example 142, 6-(4-ethoxybenzyl)-2-[(3S,4S)-4-hydroxytetrahydro-2H-pyran-3-yl]-4,5-dimethyl-2,3-dihydro-1H-isoinol-1-one] |
| 100 | 34 | CCc1cc2c(cc1Cc1ccc(-n3cccn3)cc1)C(=O)N([C@H]1CCC[C@@H]1O)C2 (racemic) [Example 59, rac-5-ethyl-2-(trans-2-hydroxycyclopentyl)-6-(4-(1H-pyrazol-1-yl)benzyl)isoindolin-1-one] |
| 94 | 5.6 | Cc1c(Cc2ccc(-n3cccn3)cc2)cc2c(c1Cl)CN([C@H]1CCCC[C@@H]1O)C2=O (racemic) [Example 93, rac-4-chloro-2-(trans-2-hydroxycyclohexyl)-5-methyl-6-(4-(1H-pyrazol-1-yl)benzyl)isoindolin-1-one] |
| 102 | 43 | O=C1c2cc(Cc3ccc(-n4cccn4)cc3)c(C3CC3)cc2CN1[C@H]1CCC[C@@H]1O (racemic) [Example 9, rac-5-cyclopropyl-2-(trans-2-hydroxycyclopentyl)-6-(4-(1H-pyrazol-1-yl)benzyl)isoindolin-1-one] |
| 92 | 9.5 | Cc1nn(C)cc1-c1ccc(Cc2cc3c(c(C)c2C)CN([C@H]2CCCC[C@@H]2O)C3=O)c(F)c1 (racemic) [Example 94, rac-6-(4-(1,3-dimethyl-1H-pyrazol-4-yl)-2-fluorobenzyl)-2-(trans-2-hydroxycyclohexyl)-4,5-dimethylisoindolin-1-one] |
| 95 | 8.8 | Cc1c(Cc2ccc(-n3cccn3)cc2)cc2c(c1F)CN([C@H]1CCCC[C@@H]1O)C2=O (racemic) [Example 78, rac-4-fluoro-2-(trans-2-hydroxycyclohexyl)-5-methyl-6-(4-(1H-pyrazol-1-yl)benzyl)isoindolin-1-one] |
| 97 | 23 | CCc1cc2c(cc1Cc1ccc(-n3cccn3)cc1F)C(=O)N([C@H]1COCC[C@@H]1O)C2 [Example 144, 5-ethyl-6-[2-fluoro-4-(1H-pyrazol-1-yl)benzyl]-2-[(3S,4S)-4-hydroxytetrahydro-2H-pyran-3-yl]-2,3-dihydro-1H-isoindol-1-one] |
| 111 | 28 | COc1ccc(Cc2cc3c(c(C)c2C)CN([C@H]2COCC[C@@H]2O)C3=O)cc1F [Example 158, 6-(3-fluoro-4-methoxybenzyl)-2-[(3S,4S)-4-hydroxytetrahydro-2H-pyran-3-yl]-4,5-dimethyl-2,3-dihydro-1H-isoindol-1-one] |
| 94 | 72 | Cn1cc(-c2ccc(Cc3cc4c(cc3Cl)CN(CC3CCCO3)C4=O)cc2)nn1 (stereo not shown) [Example 60, 5-chloro-6-(4-(1-methyl-1H-1,2,3-triazol-4-yl)benzyl)-2-(tetrahydrofuran-2-ylmethyl)isoindolin-1-one] |
| 101 | 94 | Cc1cc(-c2ccc(Cc3cc4c(cc3C)CN([C@H]3CCC[C@@H]3O)C4=O)cc2)ccn1 (racemic) [Example 100, rac-2-(trans-2-hydroxycyclopentyl)-5-methyl-6-(4-(2-methylpyridin-4-yl)benzyl)isoindolin-1-one] |
| 106 | 18 | COc1ccc(Cc2cc3c(c(C)c2C)CN([C@H]2CCCC[C@@H]2O)C3=O)cc1 [Example 141, 2-((1S,2S)-2-hydroxycyclohexyl)-6-(4-methoxybenzyl)-4,5-dimethylisoindolin-1-one] |
| 106 | 4.8 | Cc1c(Cc2ccc(-c3cnn(C)c3)nc2)cc2c(c1C)CN([C@H]1CCCC[C@@H]1O)C2=O (racemic) [Example 28, rac-2-(trans-2-hydroxycyclohexyl)-4,5-dimethyl-6-((6-(1-methyl-1H-pyrazol-4-yl)pyridin-3-yl)methyl)isoindolin-1-one] |
| 92 | 16 | COc1ccc(Cc2cc3c(c(Cl)c2C)CN([C@H]2CCCC[C@@H]2O)C3=O)cc1 [Example 151, 4-chloro-2-((1S,2S)-2-hydroxycyclohexyl)-6-(4-methoxybenzyl)-5-methylisoindolin-1-one] |
| 95 | 30 | COc1ccc(Cc2cc3c(cc2C)CN([C@H]2CCCC[C@@H]2O)C3=O)cc1 [Example 167, 2-((1S,2S)-2-hydroxycyclohexyl)-6-(4-methoxybenzyl)-5-methylisoindolin-1-one] |
| 93 | 25 | CCc1cc2c(cc1Cc1ccc(-c3ccn(C)n3)cc1)C(=O)N([C@H]1CCC[C@@H]1O)C2 [Example 120, 5-ethyl-2-((1S,2S)-2-hydroxycyclopentyl)-6-(4-(1-methyl-1H-pyrazol-3-yl)benzyl)isoindolin-1-one] |
| 100 | 22 | COc1ccc(Cc2cc3c(c(F)c2C)CN([C@H]2CCCC[C@@H]2O)C3=O)cc1 [Example 154, 4-fluoro-2-((1S,2S)-2-hydroxycyclohexyl)-6-(4-methoxybenzyl)-5-methylisoindolin-1-one] |
| 101 | 54 | Cc1cc2c(cc1Cc1ccc(-n3cccn3)cc1)C(=O)N(CC(C)(C)O)C2 [Example 104, 2-(2-hydroxy-2-methylpropyl)-5-methyl-6-(4-(1H-pyrazol-1-yl)benzyl)isoindolin-1-one] |
| 89 | 22 | Cc1c(Cc2ccc(-n3cccn3)cc2F)cc2c(c1C)CN(CC(C)(C)O)C2=O [Example 121, 6-(2-fluoro-4-(1H-pyrazol-1-yl)benzyl)-2-(2-hydroxy-2-methylpropyl)-4,5-dimethylisoindolin-1-one] |
| 95 | 37 | Cc1cc2c(cc1Cc1ccc(-n3cccn3)cc1)C(=O)N([C@H]1CCC[C@@H]1O)C2 (racemic) [Example 33, rac-2-(trans-2-hydroxycyclopentyl)-5-methyl-6-(4-(1H-pyrazol-1-yl)benzyl)isoindolin-1-one] |
